Assay results: patent US8969020B2, “Peptide sequence that promotes tumor invasion” (MetaMol Theranostics LLC, priority 2005, dated 2015)

Assays:
Assay type in all cases: cell-based, human
[1] = test system: MCF-7 cells; assay: Soft agar colony formation by MCF-7 cells with synthetic peptide added; settings: after ten days, peptide replenished with every addition of medium
Experimental: To assess effect on soft agar colony formation, 5×10^5 MCF-7 cells per 60-mm dish were plated in triplicates with a top layer of 0.3% agar (BACTO Agar, Difco, Detroit Mich.) and a bottom layer of 0.5% agar (both in a-MEM). Peptide SEQ ID NO: 37 was added at the indicated concentrations upon plating and was replenished with every addition of medium. Every other day, 0.4 ml of medium was supplemented. After ten days, photographs were taken at high and low magnification and the surface area of all clones in five fields was measured with the imaging software ImageJ (NIH) or Metamorph.
(§1) 5×10^5 MCF-7 cells per 60-mm dish were plated in triplicates with a top layer of 0.3% agar (BACTO Agar, Difco, Detroit, Mich.) and a bottom layer of 0.5% agar (both in α-MEM). Peptide was added at the indicated concentrations upon plating and was replenished with every addition of medium. For the investigation of cell growth rates, MCF-7 cells were plated at 5000 cells/well in 24-well plates in the presence or absence of peptide. Effects of a synthetic peptide on MDA-MB-435 cells are shown in FIG. 9C after 10 days in the presence or absence of synthetic peptides. hOPN Exon-5 peptide (NAVSSEETNDFKQE) SEQ ID NO: 34 and scrambled hOPN-c peptide (SSEEQETGVEKASSNS) SEQ ID NO: 33 served as non-specific controls.

[2] = test system: MCF-7 cells; assay: Cell growth rate of MCF-7 cells in 24-well plates with or without peptide; settings: 5000 cells/well, daily cell counts
Experimental: Two control peptides (hOPN-c scrambled sequence SEQ ID NO: 33 and hOPN-exon5 SEQ ID NO: 34) had no effect (data not shown). […] For investigation of cell growth rates, MCF-7 cells were plated at 5000 cells/well in 24-well plates in the presence or absence of peptide. Daily, five wells per group were harvested by trypsinization and the cell numbers were determined in a Coulter™ Z-Series Counter.
as §1

[3] = test system: MCF-7 cells; assay: Adhesion of MCF-7 cells to coated wells; settings: 2 hours at 37° C., 96-well plate coated overnight
Experimental: 96-well polystyrene plates were coated with the indicated amounts of GST-OPN forms or control fibronectin ([…]) in […] at 4° C. overnight. The wells were washed twice with cold PBS followed by blocking with 1% BSA for 1 h at 37° C. MCF-7 parental cells were used to assay adhesion. Cells were trypsinized and treated with soybean trypsin inhibitor, then washed twice with PBS and resuspended in adhesion buffer (0.1% BSA, 1 mM sodium pyruvate, 2 mM MgCl2). Cells (2×10^4 cell/well) were added to the above 96-well plates and allowed to adhere at 37° C. for two hours. Non-adherent cells were removed by rinsing twice with PBS. Adherent cells were counted and photographed. For adhesion to aggregated OPN, 1 μg of GST or GST-OPN forms were added to 96-well plated in aggregation buffer (0.2 M NaCl, 0.05 M Tris-HCl, pH 7.6, 5 mM CaCl2 final concentration) and incubated at 4° C. overnight. All adhesion assays were performed with triplicate wells and were repeated at least three times.
Stably transfected cells were plated at 5000 cells/well (24-well plate) on day 0. On every consecutive day, five wells per cell line were harvested and the total number of cells was counted. […] Aggregation was assessed after 16 hours at increasing calcium concentrations. Consecutively denaturing, non-reducing SDS-PAGE and Western blotting for OPN was performed. […]

Row | Substance | size of the clones formed in soft agar [1] | cell growth [2] | cell spreading of adhered cells on coated plastic [3]
1 | Ac-SGSSEEKQNAVSSEET-NH2 [SEQ ID NO: 37] | increasing the size of the clones formed in soft agar | no effect on cell growth | 
2 | NAVSSEETNDFKQE (Control peptide derived from Exon 5) [SEQ ID NO: 34, hOPN Exon-5 peptide, non-specific control, reference compound] | no effect |  | 
3 | SGSSEEKQNAVSSEET (Peptide representing a domain encompassing the splice junction of Exon 3 and 5) [SEQ ID NO: 8, OPNc peptide, domain around the splice junction of OPN variant-c] | enhanced soft agar clone formation | did not support the growth of cells in plastic dishes | 
4 | SSEEQETGVEKASSNS (Control peptide for OPNcPEP) [SEQ ID NO: 33, scrambled hOPN-c peptide, non-specific control, reference compound] | no effect |  | 
5 | fibronectin |  |  | cell spreading
